The source of these data is patent US7288659B2, “Acylaminothiazole derivatives, their preparation and therapeutic use” (Sanofi-Aventis, priority 2001, dated 2007).

Usually melting point stands for the temperature, or range, at which the solid turns liquid.

Each structure is given as a SMILES string.

The compound `C[C@H](NC(=O)Cc1cc(F)cc(F)c1)C(=O)Nc1ncc(-c2ccc(COC3CCCCC3)cc2)s1` [compound 39, (2S)-N-(5-{4-[(cyclohexyloxy)methyl]phenyl}-1,3-thiazol-2-yl)-2-{[2-(3,5-difluorophenyl)acetyl]amino}-propanamide] showed a melting point of 155 °C. Under `CCC[C@H](NC(=O)[C@H](O)c1cc(F)cc(F)c1)C(=O)Nc1ncc(-c2ccccc2COC2CCCCC2)s1` [compound 56, (2S)-N-(5-{2-[(cyclohexyloxy)methyl]phenyl}-1,3-thiazol-2-yl)-2-{[(2R)-2-(3,5-difluorophenyl)-2-hydroxyacetyl]amino}pentanamide] stands 112 °C; under `Cc1cccc(CC(=O)N[C@@H](C)C(=O)Nc2ncc(-c3ccccc3COC3CCCCC3)s2)c1` [compound 16, (2S)-N-(5-{2-[(cyclohexyloxy)methyl]phenyl}-1,3-thiazol-2-yl)-2-{[2-(3-methylphenyl)acetyl]amino}-propanamide], 98 °C; under `C[C@H](NC(=O)[C@H](O)c1cc(F)cc(F)c1)C(=O)Nc1ncc(-c2ccccc2COC2CCCCC2)s1` (racemic) [Compound No. 50, (2S)-N-(5-{2-[(cyclohexyloxy)methyl]phenyl}-1,3-thiazol-2-yl)-2-{[(2R)-2-(3,5-difluorophenyl)-2-hydroxyacetyl]amino}propanamide], 169 °C.

In turn, `C[C@H](NC(=O)Cc1cc(F)cc(F)c1)C(=O)Nc1ncc(-c2ccccc2COC2CCCC2)s1` [compound 49, (2S)-N-(5-{2-[(cyclopentyloxy)methyl]phenyl}-1,3-thiazol-2-yl)-2-{[2-(3,5-difluorophenyl)acetyl]amino}-propanamide] had a melting point of 236 °C. Under `COc1cccc(CC(=O)N[C@@H](C)C(=O)Nc2ncc(-c3ccccc3COC3CCCCC3)s2)c1` [compound 34, (2S)-N-(5-{2-[(cyclohexyloxy)methyl]phenyl}-1,3-thiazol-2-yl)-2-{[2-(3-methoxyphenyl)acetyl]amino}-propanamide] stands 94 °C; under `Cc1nc(NC(=O)[C@H](C)NC(=O)Cc2cc(F)cc(F)c2)sc1-c1ccccc1COC1CCCCC1` [compound 23, (2S)-N-(5-{2-[(cyclohexyloxy)methyl]phenyl}-4-methyl-1,3-thiazol-2-yl)-2-{[2-(3,5-difluorophenyl)-acetyl]amino}propanamide], 85 °C; under `C[C@H](NC(=O)C(=O)c1cc(F)cc(F)c1)C(=O)Nc1ncc(-c2ccccc2COC2CCCCC2)s1` [Compound No. 61, (2S)-N-(5-{2-[(cyclohexyloxy)methyl]phenyl}-1,3-thiazol-2-yl)-2-{[2-(3,5-difluorophenyl)-2-oxoacetyl]-amino}propanamide], 78 °C.

In the case of `CC(C)(C)[C@H](NC(=O)Cc1cc(F)cc(F)c1)C(=O)Nc1ncc(-c2ccccc2COC2CCCCC2)s1` [compound 37, (2S)-N-(5-{2-[(cyclohexyloxy)methyl]phenyl}-1,3-thiazol-2-yl)-2-{[2-(3,5-difluorophenyl)acetyl]amino}-3,3-dimethylbutanamide], the melting point stood at 73 °C.

As for `C[C@H](NC(=O)[C@H](F)c1cc(F)cc(F)c1)C(=O)Nc1ncc(-c2ccccc2COC2CCCCC2)s1` (racemic) [Compound No. 65, (2S)-N-(5-{2-[(cyclohexyloxy)methyl]phenyl}-1,3-thiazol-2-yl)-2-{[(2R)-2-(3,5-difluorophenyl)-2-fluoroacetyl]amino}propanamide], the melting point is 78 °C. Under `CC(NC(=O)Cc1cc(F)cc(F)c1)C(=O)Nc1ncc(-c2ccccc2COc2ccccc2)s1` (stereo not drawn) [Compound No. 5, 2-{[2-(3,5-difluorophenyl)acetyl]amino}-N-{5-[2-(phenoxymethyl)phenyl]-1,3-thiazol-2-yl}propanamide] stands 114 °C; under `CC(C)OCc1ccccc1-c1cnc(NC(=O)[C@H](C)NC(=O)Cc2cc(F)cc(F)c2)s1` [compound 22, (2S)-2-{[2-(3,5-difluorophenyl)acetyl]amino}-N-{5-[2-(isopropoxymethyl)phenyl]-1,3-thiazol-2-yl}propanamide], 136 °C. For `O=C(Cc1cc(F)cc(F)c1)NCC(=O)Nc1ncc(-c2ccccc2COC2CCCCC2)s1` [compound 15, N-{2-[(5-{2-[(cyclohexyloxy)methyl]phenyl}-1,3-thiazol-2-yl)amino]-2-oxoethyl}-2-(3,5-difluorophenyl)-acetamide] the value was 172 °C; for `CCC[C@H](NC(=O)Cc1cc(F)cc(F)c1)C(=O)Nc1nc(C)c(-c2ccccc2COC2CCCCC2)s1` [compound 52, (2S)-N-(5-{2-[(cyclohexyloxy)methyl]phenyl}-4-methyl-1,3-thiazol-2-yl)-2-{[2-(3,5-difluorophenyl)-acetyl]amino}pentanamide], 94 °C. `CCOCc1ccccc1-c1cnc(NC(=O)C(C)NC(=O)Cc2cc(F)cc(F)c2)s1` (stereo not drawn) [compound 3, 2-{[2-(3,5-difluorophenyl)acetyl]amino}-N-{5-[2-(ethoxymethyl)phenyl]-1,3-thiazol-2-yl}propanamide] came in with a melting point of 165 °C. Under `C[C@H](NC(=O)Cc1ccc(F)c(F)c1)C(=O)Nc1ncc(-c2ccccc2COC2CCCCC2)s1` [compound 30, (2S)-N-(5-{2-[(cyclohexyloxy)methyl]phenyl}-1,3-thiazol-2-yl)-2-{[2-(3,4-difluorophenyl)acetyl]amino}-propanamide] stands 136 °C; under `Cc1ccc(CC(=O)N[C@@H](C)C(=O)Nc2ncc(-c3ccccc3COC3CCCCC3)s2)cc1` [compound 17, (2S)-N-(5-{2-[(cyclohexyloxy)methyl]phenyl}-1,3-thiazol-2-yl)-2-{[2-(4-methylphenyl)acetyl]amino}-propanamide], 239 °C; under `COc1ccc(CC(=O)N[C@@H](C)C(=O)Nc2ncc(-c3ccccc3COC3CCCCC3)s2)cc1` [compound 33, (2S)-N-(5-{2-[(cyclohexyloxy)methyl]phenyl}-1,3-thiazol-2-yl)-2-{[2-(4-methoxyphenyl)acetyl]amino}-propanamide], 74 °C.

On to `C[C@H](NC(=O)Cc1cc(F)cc(F)c1)C(=O)Nc1ncc(-c2ccc(COCC3CCCCC3)cc2)s1` [compound 46, (2S)-N-(5-{4-[(cyclohexylmethoxy)methyl]phenyl}-1,3-thiazol-2-yl)-2-{[2-(3,5-difluorophenyl)acetyl]-amino}propanamide], for which the melting point stood at 166 °C. For `CCC[C@H](NC(=O)Cc1cc(F)cc(F)c1)C(=O)Nc1ncc(-c2ccccc2COC(C)C)s1` [compound 72, (2S)-2-{[2-(3,5-difluorophenyl)acetyl]amino}-N-{5-[2-(isopropoxymethyl)phenyl]-1,3-thiazol-2-yl}pentanamide] the value was 74 °C. Under `CC(C)[C@H](NC(=O)Cc1cc(F)cc(F)c1)C(=O)Nc1ncc(-c2ccccc2COC2CCCCC2)s1` [compound 31, (2S)-N-(5-{2-[(cyclohexyloxy)methyl]phenyl}-1,3-thiazol-2-yl)-2-{[2-(3,5-difluorophenyl)acetyl]amino}-3-methylbutanamide] stands 87 °C.
